Source: US20240197800A1, “Aristotelia chilensis EXTRACTS FOR TREATING FUNGAL INFECTIONS” (Phytonet Doo Beograd-rakovica, priority 2021, published 2024)

Tests used:
[1] = system: Candida albicans SC5314; experiment: zebrafish embryo hindbrain infection model, inhibition of candida filamentation in vivo; design: species or system Candida albicans (host: zebrafish embryo)
Description: The model of the brain infection (hindbrain) of the zebrafish embryo with Candida albicans, described in the literature, is an animal model of the infection system which due to the optical transparency of the embryo body provides the ability to examine and monitor the effect of applied therapeutics on replication, filamentation and fungi dissemination through the body of the zebrafish embryo as a host. The embryos at the developmental stage of 32-34 hpf were injected into the brain through an optic vesicle with 50-75 Candida albicans SC5314 cells, previously labeled with green fluorescent dye. Candida inoculum was prepared in 5% polyvinylpyrrolidone (PVP) solution. Two hours after the microinjection of candida, the infected embryos were treated with Maqui berry extract at a concentration of 0.0625 mg/mL, 0.125 mg/mL and 0.25 mg/mL, as well as nystatin at a concentration of 1 μg/mL (½MIK) and 0.5 μg/mL (¼MIK). Beside individual treatments, the infected embryos were exposed to a combined treatment (nystatin and extract together), in combinations of all mentioned doses. The embryos injected with only 5% PVP represented the control group. After the applied treatments, the zebrafish embryos were reared for the next 4 days at a temperature of 31° C. and monitored daily for survival as well as filamentation and dissemination of candida using fluorescence microscopy.

[2] = system: candida, three clinical isolates; experiment: inhibition of candida filamentation in vitro, checkerboard assay with nystatin in RPMI medium; format: cell-based, Candida albicans
Description: The inhibitory effect of Maqui berry extract and nystatin, one of the most commonly applied topical antifungal drugs, on candida filamentation was investigated in vitro in three clinical isolates in RPMI medium in a checkerboard assay. The extract was tested in a concentration range of 0.125; 0.25 and 0.5 mg/mL (31.25; 62.5 and 125 μg/mL delphinidin, respectively 43.75; 87.5 and 175 μg/mL total anthocyanins), and nystatin in the concentration range 2 μg/mL (MIK), 1 μg/mL (½MIK) and 0.5 μg/mL (¼MIK).

[3] = nystatin alone, MIK dose (2 μg/mL)

C[C@@H]1[C@H](O)[C@@H](C)/C=C/C=C/CC/C=C/C=C/C=C/C=C/C(O[C@H]2O[C@H](C)[C@@H](O)[C@H](N)[C@@H]2O)CC2O[C@](O)(CC(O)C(O)CCC(O)CC(O)CC(O)CC(=O)O[C@H]1C)CC(O)C2C(=O)O (stereo partly drawn) [nystatin]
filamentation in vivo ([1]; both nystatin concentrations (0.5 and 1 μg/mL)): filamentation was present
infection (candidiasis) compared to untreated embryos ([1]; nystatin 0.5 μg/mL (¼MIK) and 1 μg/mL (½MIK)): significantly reduced
MIK ([2]; clinical isolates, RPMI medium): 2 µg/mL
filamentation [2, 3]: no filamentation
growth of isolates [2, 3]: reduced growth
growth and filamentation ([2]; nystatin alone, ½MIK (1 μg/mL) and ¼MIK (0.5 μg/mL) doses): grew and filamented
